Measured values taken from ChEMBL document CHEMBL3507680, “University of Dundee, Gates Library screen for HepG2 cell viability”.

Test: Human HepG2 cell viability assay in 384 well format
Format: toxicity, cell-based
Design: dose 125 nL, time 70.5 hour; cytotoxicity at 70.5 h: concentration not given beside the values
Details: HepG2 cells, read-out: Inhibition

Structure (SMILES)	cytotoxicity at 70.5 h
COCCCn1nnc(C2(NC(=O)c3ccccc3)CCCC2)n1	-12.2%
COCc1nc2n(n1)CCCC2Nc1nc(C(C)C)ns1 (stereo not drawn)	-6.22%
O=C(NC1(c2nnn(CC3CCCO3)n2)CCCC1)c1ccccc1 (stereo not drawn)	-4.54%
O=C(NC1(c2nnn(CC3CC3)n2)CCCC1)c1ccccc1	-7.63%
CC(C)Sc1nnnn1C1CCCC1	-9.93%
CCCOC(=O)C(C)Sc1nnnn1C1CCOCC1 (stereo not drawn)	-2.83%
Cc1ccc(N2CCCC(N(C)Cc3ccccn3)C2)nn1 (stereo not drawn)	-10.3%
CS(=O)(=O)NCCC(=O)N1CCCC1c1noc(C2CC2)n1 (stereo not drawn)	-11.1%
Cc1cc(NC(=O)C2CN(Cc3ccccc3)CCO2)ccn1 (stereo not drawn)	13%
NC(=O)C1CCCN1Cc1cccc(NC(=O)c2cc(Cl)cc(Cl)c2)c1 (stereo not drawn)	-15.9%
Cc1cc(S(=O)(=O)N2CCCc3cc(F)c(F)cc32)sc1C(=O)O	-1.45%
Cc1cc(S(=O)(=O)N2CCCc3ccccc32)sc1C(=O)O	-12.2%
CC(C)NC(=O)CCN1CCCC1c1cccc2c1OCCO2 (stereo not drawn)	-8.96%
COc1ccc(-n2cnnc2SCC(=O)N(C)C(C)C)cn1	-6.69%
CCc1nc(CCNC(=O)Nc2ccc(C(=O)NC)cc2)cs1	-1.4%
Cc1cccc(NC(=O)[C@@H]2CCCN2CC(=O)Nc2ccccc2)n1	-6.38%
CCCS(=O)(=O)N1CCC(NC(=O)c2cc3ccccc3s2)CC1	-6.56%
NS(=O)(=O)N1CCC(C(=O)Nc2cccc(OC(F)F)c2)CC1	1.39%
NC(=O)C(NC(=O)Cc1cnn(-c2ccccc2)n1)c1ccccc1 (stereo not drawn)	-0.915%
CCC(=O)NCC(=O)NCC1(c2c(F)cccc2F)CCCC1	-4.06%
CC(=O)N(C)CC(=O)NCC1(c2c(F)cccc2F)CCCC1	0.534%
O=C(Nc1nnc(N2CCCCC2)[nH]1)c1cccs1	-0.727%
Cc1occc1CNC(=O)C1(C)CCCN1C(=O)c1ccccc1 (stereo not drawn)	2.74%
CCCNC(=O)CCNC(=O)N1CCc2c(F)ccc(F)c2C1	3.2%

Structure (SMILES)	cytotoxicity at 70.5 h
O=C(Cc1cnn(-c2ccccc2)n1)NC(C1CC1)C1CC1	0.511%
COC(=O)CCCNC(=O)N1CCc2c(F)ccc(F)c2C1	-1.47%
CCn1cc(CNc2ccc(F)c(N3CCCS3(=O)=O)c2)cn1	0.531%
Cc1occc1CNC(=O)C1(C)CCCN(C(=O)c2ccccc2)C1 (stereo not drawn)	0.298%
Cc1cc(=O)n(C)cc1NC(=O)Cc1cccc(F)c1	-2.92%
CC(NCC1CCN(CCO)CC1)c1ccc(C(F)(F)F)cc1 (stereo not drawn)	14%
CC(C)(C)CCCC(=O)NS(=O)(=O)CC1CC1	-0.428%
CC(C)(CO)CCCNC(=O)N1CCc2c(F)ccc(F)c2C1	-2.98%
CC(C)c1ocnc1C(=O)N1CCCC(c2ccn[nH]2)C1 (stereo not drawn)	-3.87%
Cc1nc2n(n1)CC(NCC(=O)NCC1(c3ccccc3)CC1)CC2 (stereo not drawn)	-3.45%
Cn1ccnc1CNc1ccc(F)c(N2CCCS2(=O)=O)c1	0.314%
OC(CN(Cc1ccccc1)Cc1ccncc1)c1ccco1 (stereo not drawn)	26%
OC[C@@H](O)CN(CCC(F)(F)F)c1ncccn1	5.67%
OC(CN(Cc1ccccc1)Cc1ccon1)c1ccco1 (stereo not drawn)	-7.07%
CCCN1CCCN(CCCOc2cccc(C#N)c2)CC1	-1.9%
CCn1c(CN(C)C(=O)c2ccc(N(C)C)nc2)nc2ccccc21	-14%
CC(C)(C)C(=O)N1CCN(CCOc2cccc(C#N)c2)CC1	-5.91%
CCn1c(CNC(=O)c2ccc(N(C)C)nc2)nc2ccccc21	-8.62%
Cc1cc(C)c2c(c1)C(NC(=O)CSc1nnc[nH]1)CCO2 (stereo not drawn)	10.8%
CN(Cc1cccs1)c1nc2c(cnn2C(C)(C)C)c(=O)[nH]1	-6.5%
Cc1nc(-c2ccsc2)sc1C(=O)N1CCn2c(C)nnc2C1	-0.696%
CCC(Nc1ccc(Oc2ccccc2OC)cc1)C(N)=O (stereo not drawn)	-4.77%
CCC(Nc1cccc(Oc2ccc(C#N)cc2)c1)C(N)=O (stereo not drawn)	-4.69%
Cc1nc(CN(C)c2nc3c(cnn3C(C)(C)C)c(=O)[nH]2)cs1	8.98%

Structure (SMILES)	cytotoxicity at 70.5 h
Cc1cccc(S(=O)(=O)NC(=O)c2ccc3c(c2)nnn3C)c1	-5.75%
CC1(C(=O)Nc2ccc(F)c(-n3cccc3)c2)CCOCC1	-6.66%
Cc1cc(C(=O)NC2CCN(C(=O)Nc3cccnc3)CC2)c(C)o1	-9.09%
Cc1cnc(C(C)(C)NC(=O)NCc2cccnc2OC(C)C)s1	2.79%
CN(C(=O)CNc1ccc(C#N)cc1)C1CCCCC1	-3.87%
Cc1cc(C(=O)N(C)CC(F)(F)C(F)(F)F)ccc1-n1cncn1	2.03%
Cc1nnc(CN(C)CCOc2cccc(Cl)c2)o1	-10.9%
COc1ccc(C)cc1CN(Cc1nc(C)c(C)o1)C1CCN(C)C1 (stereo not drawn)	3.17%
CCn1c(CN(C)C(=O)c2ccc(O)nc2)nc2ccccc21	-5.75%
COCCN(Cc1cnn(C)c1)Cc1ccc(C)o1	-9.85%
Cc1nnc(CN(C)CCCOc2cccc(Cl)c2)o1	0.527%
CS(=O)(=O)NC1CCN(C(=O)COCc2ccccc2)CC1	18.3%
CC(C)(C)Cc1noc2ncc(C(=O)N3CCSCC3)cc12	-7.45%
O=C(CCS(=O)(=O)C1CCCC1)NCCc1cccc(O)c1	19.9%
CC1CN(C)CCN1C(=O)c1cnc2onc(CC(C)(C)C)c2c1 (stereo not drawn)	-8.98%
CC(C)(C)C(O)CN1CCN(Cc2nccn2CC(F)(F)F)CC1 (stereo not drawn)	17.5%
CCc1nnc2n1CCN(C(=O)c1cnc(-c3cccs3)s1)C2	-7.22%
CC(O)C1CCN(Cc2nccn2CC(F)(F)F)CC1 (stereo not drawn)	-7.97%
CN(C)C(CNC(=O)c1ncoc1-c1ccccc1)c1ccsc1 (stereo not drawn)	-11.1%
COC(=O)C(C)(C)C(C)(C)NC(=O)Nc1nnc(-c2ccccn2)s1	-10.6%
Cc1cccc(C2CCCN2C(=O)CCS(C)(=O)=O)c1C (stereo not drawn)	18.6%
CCCS(=O)(=O)NC(=O)c1sc(C2CCCC2)nc1C	-3.78%
Nc1c(Cl)cnn1C1CCN(Cc2ccccc2)C1 (stereo not drawn)	-3.84%
CNS(=O)(=O)CC(=O)N(Cc1c(F)cccc1Cl)C1CC1	-7.68%

Structure (SMILES)	cytotoxicity at 70.5 h
COCc1noc(-c2nn(-c3ccccc3F)c3c2CCC3)n1	-6.39%
CS(=O)(=O)CCCSCc1ccc(Br)c(F)c1	-1.93%
CNC(=O)c1sc(C2CCCC2)nc1C	-5.12%
O=C(NCc1ccco1)Nc1ccc2nc(N3CCOCC3)oc2c1	-2.89%
CC(C)(C)Cc1noc2ncc(C(=O)N3CCC3)cc12	-6.81%
Cc1cc(NC(=O)N(Cc2ccc(C#N)cc2)C(C)C)no1	-13.2%
CCSc1ccc(C(C)NC(=O)CNS(C)(=O)=O)cc1 (stereo not drawn)	-7.13%
O=C1CCCN1CC1CCCCN1C(=O)Nc1cccc(F)c1 (stereo not drawn)	-14.6%
CC(=O)c1cccc(NC(=O)N2CCCCC2CN2CCCC2=O)c1 (stereo not drawn)	-7.82%
[O-][S+](CCN1CCc2[nH]nc(C(F)(F)F)c2C1)c1ccccc1 (stereo not drawn)	-6.21%
CN(C)c1cc2c(nn1)CCN(C(=O)c1cc3ccccc3o1)C2	-11.3%
CCNc1cc2c(nn1)CCN(C(=O)c1cc3ccccc3[nH]c1=O)C2	-12.3%
CCC(=O)Nc1cc(Br)cnc1OCC(F)(F)F	-8.98%
CCOc1cc(F)ccc1NC(=O)NCC(c1cnn(C)c1)N(C)C (stereo not drawn)	-0.683%
CCOCc1ccccc1NC(=O)NCC(c1cnn(C)c1)N(C)C (stereo not drawn)	-5.82%
Cn1c(C(=O)NS(C)(=O)=O)ccc1-c1ccccc1	-6.29%
Cc1ccc(C(NC(=O)Cc2nc3ncccn3n2)C2CC2)cc1 (stereo not drawn)	-11.9%
CNC(=O)c1ccc(-c2ccccc2)n1C	-9.17%
Cc1nc(NC(=O)OC(C)(C)C)sc1C(N)=O	-2.34%
CCN(CC)C(C(=O)Nc1ccc2c(c1)CCC(=O)N2)c1ccccc1 (stereo not drawn)	-11.2%
c1ccc(CSc2nnc(C3CC3)s2)nc1	-7.57%
CCCN(CCC)S(=O)(=O)N(C)Cc1ccncc1	-12.4%
COCCN(CCOC)S(=O)(=O)N(C)Cc1ccncc1	19.1%
CC/C=C(/C)C(=O)NCc1ccnc(OC)c1	-8.93%

Structure (SMILES)	cytotoxicity at 70.5 h
CC(C)N(C)CCNC(=O)N(C)CC1CCOCC1	-11.2%
Cc1cc2n(n1)CC(CNCc1cnn(C)c1)CN2 (stereo not drawn)	-15%
COc1c(CNCCC(=O)Nc2cccc(C)n2)c(C(C)C)nn1C	14.3%
CN1CCN(C(=O)CCCc2ccccn2)c2ccc(F)cc21	14.3%
Cc1ccc(N(C)CC(O)COCc2ccccc2)c(C)c1 (stereo not drawn)	12.5%
COc1c(NC(=O)N(C)CCOc2ccccc2)c(C)nn1C	15.1%
COCCOCC(=O)NCCCOC1CCCc2ccccc21 (stereo not drawn)	27.2%
Cc1noc(CNc2ccc(OC(F)F)cc2OC(F)F)n1	-2.77%
CC(=O)NCCNC(=O)Nc1ccc(C)cc1OCc1ccccc1	-1.2%
Cc1cc(C)cc(C(=O)NCCCC2(C3OCCO3)CCOCC2)c1	1.06%
O=C(CCc1nccs1)N1CCC(C(=O)O)(c2ccccc2)CC1	-0.696%
CCN(CC)S(=O)(=O)CCNc1ncnc2cc(F)c(F)cc12	-1.89%
Cc1nc(CNC(=O)Nc2ccc3c(c2)CCCC(=O)N3)sc1C	-0.115%
N#Cc1ccc(NCCCN2C(=O)COc3ccccc32)nc1	-1.32%
Cc1nc(CNC(=O)Nc2ccc3c(c2)CCCN3C)sc1C	-0.336%
COc1cccc(C2(NC(=O)CCNC(C)=O)CC2)c1	5.65%
COc1c(NC(=O)N(C)CCOc2ccc(F)cc2)c(C)nn1C	2.48%
Cc1noc(C)c1Cn1cc(I)cc(C)c1=O	4.77%
CN1C(=O)CCN(C(=O)C2CC=CC2)c2ccccc21	1.54%
COc1cccc(-c2n[nH]cc2CNCC2CCS(=O)(=O)C2)c1 (stereo not drawn)	0.998%
O=C(CCCc1ccccn1)N1CCOc2ccc(F)cc21	1.36%
COc1ccc(C(C)NCc2ccc(OC)c(OC)c2OC)cc1F (stereo not drawn)	31.6%
